Where two headings read alike, the source gives them in different places.
Columns and labels:
Assay type in all cases: cell-based
[1] = system: SW-480 (human colon cancer cells); experiment: MTT inhibition of tumor cell growth, SW-480
Experimental: (§1) 1. Inoculating cells: the culture medium DMEM or RMPI1640 containing 10% fetal bovine serum was used to prepare a single cell suspension, and the cell suspension was inoculated to a 96-well plate at 5000-10000 cells per well (100 μl for each well); Adherent cells were inoculated and cultured for 12 h in advance. HL-60 (human promyelocytic leukemia cells), SMMC-7721 (human hepatoma cells), A-549 (Human lung adenocarcinoma cells), MCF-7 (human breast cancer cells), SW-480 (human colon cancer cells) were purchased from the Cell Bank of the Chinese Academy of Sciences, Shanghai.
(§2) 2. The solution of the compound to be tested (40 μM for primary screening; 5 concentrations were set for gradient re-screening for the compounds which achieve about 50% inhibition of tumor cell growth at 40 μM) was added, the final volume of each well was 200 μl, and triplicate wells were set for each test.
(§3) 3. Coloration: After culturing at 37° C. for 48 h, MTT solution (20 μl) was added to each well. After incubation for another 4 h, the culture was stopped. The supernatant in each well was pipetted and discarded, and 200 μl SDS solution (10%) was added to each well. Incubation was performed overnight (at 37° C.), to completely dissolve the crystal.
(§4) 4. Colorimetric assay: ELISA Reader (Bio-Rad 680) was used to obtain the light absorption for each well at a wavelength of 595 nm, the results were recorded. A cell growth curve was plotted with the concentration as abscissa and the cell survival percentage as ordinate. The two-point method (Reed and Muench method) was used to calculate the IC50 of the compound.

[2] = system: SMMC-7721 (human hepatoma cells); experiment: MTT inhibition of tumor cell growth, SMMC-7721
Experimental: as §1, §2, §3, §4

[3] = system: MCF-7 (human breast cancer cells); experiment: MTT inhibition of tumor cell growth, MCF-7
Experimental: as §1, §2, §3, §4

[4] = system: HL-60 (human promyelocytic leukemia cells); experiment: MTT inhibition of tumor cell growth, HL-60
Experimental: as §1, §2, §3, §4

[5] = system: A-549 (Human lung adenocarcinoma cells); experiment: MTT inhibition of tumor cell growth, A-549
Experimental: as §1, §2, §3, §4

[6] = Homo sapiens, SW480, 48 h, Table 6, double Michael reaction acceptor derivatives, read-out: IC50 SW-480, derivatives having double Michael reaction acceptor
[7] = Homo sapiens, SW480, 48 h, Table 7 (first), alkaloid derivatives, read-out: IC50 SW-480
[8] = Homo sapiens, SMMC-7721, 48 h, Table 7 (first), alkaloid derivatives
[9] = Homo sapiens, MCF7, 48 h, Table 7 (first), alkaloid derivatives
[10] = Homo sapiens, HL-60, 48 h, Table 7 (first), alkaloid derivatives
[11] = Homo sapiens, A549, 48 h, Table 7 (first), alkaloid derivatives
[12] = Homo sapiens, SW480, 48 h, Table 6, 7-hydroxyl derivatives and controls, read-out: IC50 SW-480, 7-hydroxyl derivatives
[13] = Homo sapiens, SW480, 48 h, Table 6, 7-carbonyl derivatives, read-out: IC50 SW-480, 7-carbonyl derivatives
[14] = Table 1, 7-hydroxy derivatives of S-3, 48 h
[15] = Table 2, derivatives having potential Michael reaction acceptor, 48 h
[16] = Table 3, single Michael reaction acceptor, modified lactonic ring, 48 h
[17] = Table 4, derivatives obtained by reduction of the lactonic ring, 48 h
[18] = Table 5, derivatives having double Michael reaction acceptor, 48 h
[19] = Table 7 (first), alkaloid derivatives, 48 h

## C=C1C(=O)C23CC[C@@H](CC2[C@]2(COC(=O)CC)CCC[C@@](C)(COC(=O)CC)C12)C(=C)C3=O (stereo partly drawn) [Compound 74c]
[1]; [6]
  IC50: 330 nM

## C=C1C(=O)[C@@]23CC[C@@H](CC2[C@@]24CCC[C@@](C)(CN(CCO[Si](C)(C)C(C)(C)C)C2)C14)C(=C)C3=O (stereo partly drawn) [Compound 92]
[1]; [7]
  IC50: 2780 nM
[2]; [8]
  IC50: 2630 nM
[3]; [9]
  IC50: 2900 nM
[4]; [10]
  IC50: 1390 nM
[5]; [11]
  IC50: 1550 nM

## C=C1C(=O)C23CC[C@H]1CC2[C@]1(COC(=O)c2ccccc2)CCC[C@@](C)(COC(=O)c2ccccc2)C1C[C@H]3O (stereo partly drawn) [Compound 72d]
[1]; [12]
  IC50: 520 nM

## C=C1C(=O)C23CC[C@H]1CC2[C@]1(COC(=O)c2cccs2)CCC[C@@](C)(COC(=O)c2cccs2)C1C[C@H]3O (stereo partly drawn) [Compound 63]
[1]; [12]
  IC50: 2970 nM

## C=C1C(=O)C23CC[C@@H](CC2[C@]2(COC(=O)c4ccccc4)CCC[C@@](C)(COC(=O)c4ccccc4)C12)C(=C)C3=O (stereo partly drawn) [Compound 74d]
[1]; [6]
  IC50: 150 nM

## C=C1C(=O)C23CC[C@H]1CC2[C@@]12CCC[C@@](C)(COS(=O)OC1)C2CC3=O (stereo partly drawn) [Compound 42]
[1]; [13]
  IC50: 1830 nM

## C=C1C(=O)C23CC[C@H]1CC2[C@]1(COC(=O)c2ccccc2)CCC[C@@](C)(COC(=O)c2ccccc2)C1CC3=O (stereo partly drawn) [Compound 73d]
[1]; [13]
  IC50: 620 nM

## C=C1C(=O)C23CC[C@H]1CC2[C@]1(COC(C)=O)CCC[C@@](C)(COC(=O)c2cccs2)C1C[C@H]3O (stereo partly drawn) [Compound 70]
[1]; [12]
  IC50: 1690 nM

## CC(=O)O[C@H]1C(=O)[C@@]2(C)[C@H]([C@H](OC(=O)c3ccccc3)[C@]3(O)C[C@H](OC(=O)[C@H](O)[C@@H](NC(=O)c4ccccc4)c4ccccc4)C(C)=C1C3(C)C)[C@]1(OC(C)=O)CO[C@@H]1C[C@@H]2O [TAXOL, reference compound]
[1]; Homo sapiens, SW480, 48 h, Table 1, 7-hydroxy derivatives of S-3, read-out: IC50 SW-480
  IC50: < 8 nM
[1]; Homo sapiens, SW480, 48 h, Table 2, derivatives having potential Michael reaction acceptor, read-out: IC50 SW-480
  IC50: < 8 nM
[1]; Homo sapiens, SW480, 48 h, Table 3, single Michael reaction acceptor, modified lactonic ring, read-out: IC50 SW-480
  IC50: < 8 nM
[1]; Homo sapiens, SW480, 48 h, Table 4, derivatives obtained by reduction of the lactonic ring, read-out: IC50 SW-480
  IC50: < 8 nM
[1]; Homo sapiens, SW480, 48 h, Table 5, derivatives having double Michael reaction acceptor, read-out: IC50 SW-480
  IC50: < 8 nM
[1]; [12]
  IC50: < 8 nM
[1]; [7]
  IC50: < 8 nM
[2]; Homo sapiens, SMMC-7721, 48 h, Table 1, 7-hydroxy derivatives of S-3
  IC50: < 8 nM
[2]; Homo sapiens, SMMC-7721, 48 h, Table 2, derivatives having potential Michael reaction acceptor
  IC50: < 8 nM
[2]; Homo sapiens, SMMC-7721, 48 h, Table 3, single Michael reaction acceptor, modified lactonic ring
  IC50: < 8 nM
[2]; Homo sapiens, SMMC-7721, 48 h, Table 4, derivatives obtained by reduction of the lactonic ring
  IC50: < 8 nM
[2]; Homo sapiens, SMMC-7721, 48 h, Table 5, derivatives having double Michael reaction acceptor
  IC50: < 8 nM
[2]; [8]
  IC50: < 8 nM
[3]; Homo sapiens, MCF7, 48 h, Table 1, 7-hydroxy derivatives of S-3
  IC50: < 8 nM
[3]; Homo sapiens, MCF7, 48 h, Table 2, derivatives having potential Michael reaction acceptor
  IC50: < 8 nM
[3]; Homo sapiens, MCF7, 48 h, Table 3, single Michael reaction acceptor, modified lactonic ring
  IC50: < 8 nM
[3]; Homo sapiens, MCF7, 48 h, Table 4, derivatives obtained by reduction of the lactonic ring
  IC50: < 8 nM
[3]; Homo sapiens, MCF7, 48 h, Table 5, derivatives having double Michael reaction acceptor
  IC50: < 8 nM
[3]; [9]
  IC50: < 8 nM
[4]; Homo sapiens, HL-60, 48 h, Table 1, 7-hydroxy derivatives of S-3
  IC50: < 8 nM
[4]; Homo sapiens, HL-60, 48 h, Table 2, derivatives having potential Michael reaction acceptor
  IC50: < 8 nM
[4]; Homo sapiens, HL-60, 48 h, Table 3, single Michael reaction acceptor, modified lactonic ring
  IC50: < 8 nM
[4]; Homo sapiens, HL-60, 48 h, Table 4, derivatives obtained by reduction of the lactonic ring
  IC50: < 8 nM
[4]; Homo sapiens, HL-60, 48 h, Table 5, derivatives having double Michael reaction acceptor
  IC50: < 8 nM
[4]; [10]
  IC50: < 8 nM
[5]; Homo sapiens, A549, 48 h, Table 1, 7-hydroxy derivatives of S-3
  IC50: < 8 nM
[5]; Homo sapiens, A549, 48 h, Table 2, derivatives having potential Michael reaction acceptor
  IC50: < 8 nM
[5]; Homo sapiens, A549, 48 h, Table 3, single Michael reaction acceptor, modified lactonic ring
  IC50: < 8 nM
[5]; Homo sapiens, A549, 48 h, Table 4, derivatives obtained by reduction of the lactonic ring
  IC50: < 8 nM
[5]; Homo sapiens, A549, 48 h, Table 5, derivatives having double Michael reaction acceptor
  IC50: < 8 nM
[5]; [11]
  IC50: < 8 nM

## C=C1C(=O)C23CC[C@H]1CC2[C@]1(COC(=O)CC)CCC[C@@](C)(COC(=O)CC)C1CC3=O (stereo partly drawn) [Compound 73c]
[1]; [13]
  IC50: 690 nM

## C=C1C(=O)C23CC[C@H]1CC2[C@]1(COC(=O)CC)CCC[C@@](C)(COC(=O)CC)C1C[C@H]3O (stereo partly drawn) [Compound 72c]
[1]; [12]
  IC50: 810 nM

## [NH2][Pt]([NH2])([Cl])[Cl] [cis-DDP, reference compound]
[1]; Table 1, 7-hydroxy derivatives of S-3, 48 h, read-out: IC50 SW-480
  IC50: 16600 nM
[1]; Table 2, derivatives having potential Michael reaction acceptor, 48 h, read-out: IC50 SW-480
  IC50: 16600 nM
[1]; Table 3, single Michael reaction acceptor, modified lactonic ring, 48 h, read-out: IC50 SW-480
  IC50: 16600 nM
[1]; Table 4, derivatives obtained by reduction of the lactonic ring, 48 h, read-out: IC50 SW-480
  IC50: 16600 nM
[1]; Table 5, derivatives having double Michael reaction acceptor, 48 h, read-out: IC50 SW-480
  IC50: 16600 nM
[1]; Table 6, 7-hydroxyl derivatives and controls, 48 h, read-out: IC50 SW-480, 7-hydroxyl derivatives
  IC50: 11100 nM
[1]; Table 7 (first), alkaloid derivatives, 48 h, read-out: IC50 SW-480
  IC50: 12000 nM
[2]; [14]
  IC50: 8860 nM
[2]; [15]
  IC50: 8860 nM
[2]; [16]
  IC50: 8860 nM
[2]; [17]
  IC50: 8860 nM
[2]; [18]
  IC50: 8860 nM
[2]; [19]
  IC50: 10200 nM
[3]; [14]
  IC50: 15900 nM
[3]; [15]
  IC50: 15900 nM
[3]; [16]
  IC50: 15900 nM
[3]; [17]
  IC50: 15900 nM
[3]; [18]
  IC50: 15900 nM
[3]; [19]
  IC50: 17500 nM
[4]; [14]
  IC50: 1810 nM
[4]; [15]
  IC50: 1810 nM
[4]; [16]
  IC50: 1810 nM
[4]; [17]
  IC50: 1810 nM
[4]; [18]
  IC50: 1810 nM
[4]; [19]
  IC50: 3080 nM
[5]; [14]
  IC50: 11700 nM
[5]; [15]
  IC50: 11700 nM
[5]; [16]
  IC50: 11700 nM
[5]; [17]
  IC50: 11700 nM
[5]; [18]
  IC50: 11700 nM
[5]; [19]
  IC50: 9080 nM

## C=C1C(=O)[C@]23CC[C@H]1CC2[C@@]12CCC[C@@]4(C)CN(CCO)[C@@H]1O[C@@H]3CC42 (stereo partly drawn) [Compound 82]
[1]; Homo sapiens, SW480, Table 7 (first), alkaloid derivatives, 48 h, read-out: IC50 SW-480
  IC50: 14000 nM
[2]; Homo sapiens, SMMC-7721, Table 7 (first), alkaloid derivatives, 48 h
  IC50: 23600 nM
[3]; Homo sapiens, MCF7, Table 7 (first), alkaloid derivatives, 48 h
  IC50: 10400 nM
[4]; Homo sapiens, HL-60, Table 7 (first), alkaloid derivatives, 48 h
  IC50: 19300 nM
[5]; Homo sapiens, A549, Table 7 (first), alkaloid derivatives, 48 h
  IC50: 18600 nM
